In series [1] the test system is mixed sodium current, rat DRG cells. It counts as cell-based.
For series [2], the system named is TTX-sensitive current, rat DRG cells. It counts as cell-based.
In series [3] the test system is TTX-resistant sodium current, rat DRG cells. As to the kind of experiment: Rat DRG patch clamp, TTX-resistant current. It counts as cell-based. (In general: The patch-clamp technique gives a direct electrical read-out from membranes.)
Series [4] has as its system formalin-induced flinching, rat. The note with it: in vivo.
The conditions of series [5]: rat, in vivo, iv; cited from earlier work.
The conditions of series [6]: rat, in vivo.
In a further series the target is hNav1.6 (Homo sapiens, UniProt Q9UQD0). As to the kind of experiment: cell-based. As to conditions: patch clamp method not given; read-out: pIC50 Nav1.6 (converted).
Another series addresses hNav1.4 (Homo sapiens, UniProt P35499). As to the kind of experiment: cell-based. As to conditions: patch clamp method not given; read-out: pIC50 Nav1.4 (converted).
The next series has as its target T1, hNav1.7 (Homo sapiens, UniProt Q15858).
T1 construct: host or cells: HEK293
Briefly: cell-based. The note with it: patch clamp method not given; read-out: pIC50 Nav1.7 (converted).

Series [7] concerns formalin-induced flinching, morphine-tolerant rats. As to conditions: rat, in vivo; cited from earlier work.
For series [8] the test system is unchanged. The note with it: rat, in vivo. How it is done: A soft metal band was glued to the plantar side of one hind paw and rats were allowed to acclimate in the test chamber for 30 min. […] The incidence of nociceptive behavior - flinching and shaking of the injected paw was counted by an automated formalin apparatus (University Anesthesia Research and Development Group, Department of Anesthesiology, University of California, San Diego, La Jolla, CA). The number of paw flinches was tallied by minute over 60 min[60]. Total flinches in phase I (0~10 min) and phase II (11~60 min) were calculated.
Male Sprague-Dawley (CD) rats (Charles River, San Diego) ~250–300 g were catheterized intrathecally as described above. The non-indwelling end (PE60) of the catheter was connected to the flow modulator of an osmotic pump (Alzet 2001, 1 μl/h) loaded with morphine or saline vehicle, which underwent priming at 37 °C overnight in sterile saline. The osmotic pump was implanted subcutaneously above the scapula. To induce morphine tolerance, morphine was infused intrathecally by the osmotic pump at a dose of 15 μg/h for 7 days[61]. On day 7 the pumps were extracted and the wounds were closed with the intrathecal catheters left in place. Catheters were flushed with 20 μL of saline.

T1 sequence (Q15858 whole entry): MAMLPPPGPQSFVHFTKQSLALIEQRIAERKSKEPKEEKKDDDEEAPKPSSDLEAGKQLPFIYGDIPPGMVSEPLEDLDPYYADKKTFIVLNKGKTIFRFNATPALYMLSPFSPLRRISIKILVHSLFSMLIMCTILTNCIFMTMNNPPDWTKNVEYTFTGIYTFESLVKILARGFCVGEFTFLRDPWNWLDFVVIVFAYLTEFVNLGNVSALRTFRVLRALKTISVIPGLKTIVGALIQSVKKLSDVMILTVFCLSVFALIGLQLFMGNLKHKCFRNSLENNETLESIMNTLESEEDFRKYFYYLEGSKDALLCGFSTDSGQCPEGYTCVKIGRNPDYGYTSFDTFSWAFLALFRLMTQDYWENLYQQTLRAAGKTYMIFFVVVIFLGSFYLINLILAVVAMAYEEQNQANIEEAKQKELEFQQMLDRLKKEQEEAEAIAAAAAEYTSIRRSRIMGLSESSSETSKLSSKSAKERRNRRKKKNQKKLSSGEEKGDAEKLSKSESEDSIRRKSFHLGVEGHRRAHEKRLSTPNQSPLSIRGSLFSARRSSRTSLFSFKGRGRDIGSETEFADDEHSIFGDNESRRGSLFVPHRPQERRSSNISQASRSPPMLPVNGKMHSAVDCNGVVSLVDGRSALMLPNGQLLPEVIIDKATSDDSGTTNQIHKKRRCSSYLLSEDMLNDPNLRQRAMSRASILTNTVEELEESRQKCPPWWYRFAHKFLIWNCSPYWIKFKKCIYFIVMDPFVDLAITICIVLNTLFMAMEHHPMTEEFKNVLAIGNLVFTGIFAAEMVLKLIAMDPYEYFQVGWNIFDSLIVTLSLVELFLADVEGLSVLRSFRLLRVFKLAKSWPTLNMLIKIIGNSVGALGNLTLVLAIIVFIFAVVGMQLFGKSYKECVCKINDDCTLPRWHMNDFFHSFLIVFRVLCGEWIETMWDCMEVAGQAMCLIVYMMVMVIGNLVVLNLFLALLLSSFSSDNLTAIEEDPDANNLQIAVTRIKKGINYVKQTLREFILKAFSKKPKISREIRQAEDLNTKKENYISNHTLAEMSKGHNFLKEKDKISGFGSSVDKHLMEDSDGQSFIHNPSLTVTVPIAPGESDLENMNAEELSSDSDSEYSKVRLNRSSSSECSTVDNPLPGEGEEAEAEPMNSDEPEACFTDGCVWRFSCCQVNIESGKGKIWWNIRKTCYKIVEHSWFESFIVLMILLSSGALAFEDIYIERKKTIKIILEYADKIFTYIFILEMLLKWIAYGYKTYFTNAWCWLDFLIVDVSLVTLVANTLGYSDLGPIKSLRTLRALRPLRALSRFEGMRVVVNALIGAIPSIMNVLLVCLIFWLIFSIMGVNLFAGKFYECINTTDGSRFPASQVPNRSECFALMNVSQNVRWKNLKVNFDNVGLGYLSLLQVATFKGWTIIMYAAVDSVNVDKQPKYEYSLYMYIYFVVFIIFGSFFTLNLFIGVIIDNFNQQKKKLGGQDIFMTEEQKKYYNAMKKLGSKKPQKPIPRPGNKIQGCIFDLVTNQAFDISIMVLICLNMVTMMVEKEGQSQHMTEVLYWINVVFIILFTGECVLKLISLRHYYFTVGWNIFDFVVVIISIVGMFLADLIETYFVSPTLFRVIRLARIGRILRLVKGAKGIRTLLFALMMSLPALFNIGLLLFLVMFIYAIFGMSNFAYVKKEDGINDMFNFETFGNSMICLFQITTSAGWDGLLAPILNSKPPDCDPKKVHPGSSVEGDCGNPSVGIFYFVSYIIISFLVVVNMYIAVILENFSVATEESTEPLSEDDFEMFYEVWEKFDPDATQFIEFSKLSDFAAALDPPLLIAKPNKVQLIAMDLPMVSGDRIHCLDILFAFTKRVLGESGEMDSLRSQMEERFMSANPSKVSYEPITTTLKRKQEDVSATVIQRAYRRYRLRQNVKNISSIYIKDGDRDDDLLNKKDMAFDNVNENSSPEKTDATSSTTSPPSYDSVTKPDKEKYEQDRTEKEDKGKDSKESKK
Sequence of hNav1.4 (P35499 whole entry): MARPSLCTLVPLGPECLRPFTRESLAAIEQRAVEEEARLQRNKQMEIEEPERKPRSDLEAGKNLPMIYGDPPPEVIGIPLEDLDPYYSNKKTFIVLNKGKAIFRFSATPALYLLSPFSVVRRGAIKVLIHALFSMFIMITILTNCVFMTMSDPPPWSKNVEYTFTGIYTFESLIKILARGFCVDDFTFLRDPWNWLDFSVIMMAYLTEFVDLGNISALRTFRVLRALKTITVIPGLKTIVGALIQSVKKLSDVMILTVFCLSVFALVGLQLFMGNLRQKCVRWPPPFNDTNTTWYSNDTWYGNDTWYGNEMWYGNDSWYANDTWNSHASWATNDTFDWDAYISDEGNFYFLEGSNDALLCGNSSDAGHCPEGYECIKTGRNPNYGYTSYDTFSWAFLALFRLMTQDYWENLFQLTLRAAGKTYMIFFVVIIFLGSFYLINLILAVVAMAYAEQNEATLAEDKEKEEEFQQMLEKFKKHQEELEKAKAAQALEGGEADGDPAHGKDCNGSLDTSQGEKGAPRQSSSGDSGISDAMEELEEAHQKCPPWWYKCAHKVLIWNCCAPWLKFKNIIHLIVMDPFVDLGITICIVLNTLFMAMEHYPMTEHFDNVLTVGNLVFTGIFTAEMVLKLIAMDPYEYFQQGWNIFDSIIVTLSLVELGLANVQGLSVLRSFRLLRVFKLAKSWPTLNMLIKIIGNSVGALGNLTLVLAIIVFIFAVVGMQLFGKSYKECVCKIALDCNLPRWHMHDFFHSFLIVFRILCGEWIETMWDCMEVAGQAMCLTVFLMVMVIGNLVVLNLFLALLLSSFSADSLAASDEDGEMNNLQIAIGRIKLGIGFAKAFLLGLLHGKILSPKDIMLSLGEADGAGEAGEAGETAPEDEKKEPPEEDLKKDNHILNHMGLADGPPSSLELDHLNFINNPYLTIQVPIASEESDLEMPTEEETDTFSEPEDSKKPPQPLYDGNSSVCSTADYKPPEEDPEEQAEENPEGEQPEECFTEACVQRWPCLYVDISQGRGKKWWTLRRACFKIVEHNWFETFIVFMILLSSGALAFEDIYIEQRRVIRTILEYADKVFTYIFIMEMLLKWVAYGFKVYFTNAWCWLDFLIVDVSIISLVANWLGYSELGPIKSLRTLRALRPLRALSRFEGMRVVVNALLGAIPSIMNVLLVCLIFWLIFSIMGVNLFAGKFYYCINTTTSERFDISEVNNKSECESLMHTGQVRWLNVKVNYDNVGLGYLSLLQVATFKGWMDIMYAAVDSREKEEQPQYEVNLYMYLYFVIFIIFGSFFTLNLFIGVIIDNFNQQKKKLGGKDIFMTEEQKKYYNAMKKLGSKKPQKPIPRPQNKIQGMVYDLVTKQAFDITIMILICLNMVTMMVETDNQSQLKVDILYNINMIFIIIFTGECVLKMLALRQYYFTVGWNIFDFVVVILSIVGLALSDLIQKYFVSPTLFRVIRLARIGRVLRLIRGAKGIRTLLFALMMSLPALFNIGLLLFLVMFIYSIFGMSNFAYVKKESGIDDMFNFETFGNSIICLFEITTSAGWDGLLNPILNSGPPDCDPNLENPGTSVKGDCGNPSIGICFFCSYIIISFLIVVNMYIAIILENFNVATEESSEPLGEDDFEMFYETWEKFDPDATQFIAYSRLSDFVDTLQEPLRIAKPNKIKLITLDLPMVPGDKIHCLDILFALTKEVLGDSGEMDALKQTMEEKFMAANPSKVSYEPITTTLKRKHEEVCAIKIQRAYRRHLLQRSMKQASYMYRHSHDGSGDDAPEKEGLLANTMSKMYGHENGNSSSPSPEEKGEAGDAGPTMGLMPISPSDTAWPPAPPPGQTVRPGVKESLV

Take `NC1=N[C@H](O)[C@H]2[C@H]3O[C@]4(O)O[C@@H]([C@@H](O)[C@@]2(N1)[C@@H]4O)[C@]3(O)CO` [TTX, tetrodotoxin]: the “block, mixed cells” value in [1] is listed as 29–68%. In addition, the “block, predominantly TTX-sensitive cells” value in series [2] is ~ 100%. In addition, the “block, predominantly TTX-resistant cells” value in [3] was below 10%.

On to ziconotide [reference compound], for which the “pED50 formalin (phase II)” value in series [4] is 7.1 ± 0.18 −log g. In series [5], the “histamine release and hemodynamic changes” value was “induce histamine release and associated hemodynamic changes”. Besides, in [6], the behavioral side effects entry was “whole body shakes, increased muscle tone and “serpentine” tail movement”; the scratching behavior entry is on record as “did not induce scratching behavior”.

`CSCC[C@@H]1NC(=O)CNC(=O)[C@H](CCC(=O)O)NC(=O)[C@@H]2CSSC[C@H](NC(=O)[C@@H](N)Cc3ccc(O)cc3)C(=O)N[C@@H](CCC(N)=O)C(=O)N[C@@H](CCCCN)C(=O)N[C@@H](Cc3c[nH]c4ccccc34)C(=O)N[C@@H](CCSC)C(=O)N[C@@H](CCC(N)=O)C(=O)N[C@@H]([C@@H](C)O)C(=O)N[C@H]3CSSC[C@H](NC(=O)[C@H](C(C)C)NC1=O)C(=O)N[C@@H](CCCNC(=N)N)C(=O)N[C@@H](CC(C)C)C(=O)N[C@@H](Cc1c[nH]c4ccccc14)C(=O)N[C@H](C(=O)N[C@@H](CCCCN)C(=O)N[C@@H](CCCCN)C(=O)N[C@@H](CCCCN)C(=O)N[C@@H](CC(C)C)C(=O)N[C@@H](CC(C)C)C(=O)O)CSSC[C@H](NC(=O)[C@H](CCCCN)NC(=O)[C@H](CCCNC(=N)N)NC(=O)[C@H](CCC(=O)O)NC(=O)[C@H](CO)NC(=O)[C@H](CC(=O)O)NC3=O)C(=O)N2` [ProTX-II W7Q, W30L]: the IC50 at hNav1.6 was 2000 nM; at hNav1.4, 3.98 µM; on hNav1.7, 10 nM.

As for `CN1CC[C@]23c4c5ccc(O)c4O[C@H]2[C@@H](O)C=C[C@H]3[C@H]1C5` [morphine], in [4], the “pED50 formalin (phase II)” value was 5.4 ± 0.22 −log g. The “block of phase 2 during morphine infusion, day 2” value in series [7] is on record as “significant block of phase 2 on day 2”. Also, in [8], the “efficacy during morphine infusion, day 7” value is given as “loses its efficacy by day 7” and the “phase II formalin flinching, morphine-tolerant rats” value is listed as “did not significantly reduce phase II formalin flinching”.

Values taken from PMC5206724, “Insensitivity to pain induced by a potent selective closed-state Nav1.7 inhibitor” (Scientific Reports, 2017).
